The target of the test is Estrogen receptor beta (Homo sapiens, UniProt Q92731). As to the kind of experiment: Antagonist activity at ER-beta (unknown origin).
Estrogen receptor beta, sequence (Q92731 whole entry): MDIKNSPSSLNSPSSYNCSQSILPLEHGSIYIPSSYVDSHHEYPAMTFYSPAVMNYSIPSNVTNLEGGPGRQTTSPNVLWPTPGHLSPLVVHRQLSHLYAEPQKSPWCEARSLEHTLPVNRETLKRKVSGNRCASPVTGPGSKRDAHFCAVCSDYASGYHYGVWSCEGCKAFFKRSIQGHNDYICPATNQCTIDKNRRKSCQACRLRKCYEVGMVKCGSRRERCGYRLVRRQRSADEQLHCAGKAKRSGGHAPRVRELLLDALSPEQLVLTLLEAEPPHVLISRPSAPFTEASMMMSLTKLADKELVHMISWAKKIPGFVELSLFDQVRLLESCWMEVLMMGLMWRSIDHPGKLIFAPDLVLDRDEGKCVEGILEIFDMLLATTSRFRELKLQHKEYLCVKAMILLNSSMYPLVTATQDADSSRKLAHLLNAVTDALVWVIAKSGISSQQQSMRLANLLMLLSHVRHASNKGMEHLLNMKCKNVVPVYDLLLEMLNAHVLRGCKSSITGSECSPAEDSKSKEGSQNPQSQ

For orientation: IC50 means the point on the concentration scale where inhibition reaches its midpoint. Higher therefore signals lower potency. Consider `CNC(=O)c1ccc2nc(C)c3nnc(-c4ccccc4Cl)n3c2c1`, for which the IC50 was 2.51 nM.
Next, `CNC(=O)c1ccc2nc(C)c3nnc(-c4cc(OCC(C)C)ccc4Cl)n3c2c1`: 0.631 nM.
